Patent publication US20220341825A1, “CELL-COMPATIBLE TISSUE CLARIFYING COMPOSITION” (OSAKA UNIVERSITY, priority 2019, published 2022)
Marks after values point to notes of the source that are not given here.

Key:
[1] = system: collagen solution (sCMF, sonicated collagen microfiber); test: Transparentizing ability in collagen model system (transmittance at 600 nm); conditions: for transparentizing ability: screening in collagen (sCMF) solution; for transmittance: room temperature, 2 hours
Procedure: Since collagen is most abundant in biological tissue, a collagen solution was used as a model of the biological tissue to screen various compounds for their transparentizing ability. The outline of the screening experiment is as follows. Aqueous solutions of test compounds were added to multi-well plates containing aqueous solutions of sCMF (sonicated collagen microfiber) and allowed to stand at room temperature for a certain period of time, and subsequently, apparent transparency and transmittance at 600 nm were measured. 100 μL of 100 wt % AMP aqueous solution (refractive index: 1.43), 100 wt % CMP aqueous solution (refractive index: 1.42), 100 wt % TMP aqueous solution (refractive index: 1.41) or 25 wt % poly A aqueous solution (refractive index: 1.37) were added. The molecular weight of poly A was 100 to 500 kDa. Distilled water was added for a control. The resultant was allowed to stand at room temperature for 2 hours, and then the absorbance at 600 nm was measured with a plate reader (Synergy HTX). The obtained absorbance was substituted into an equation according to the Lambert-Beer formula to calculate the transmittance. 100 μL of 0.1 wt %, 0.5 wt %, 1 wt %, and 5 wt % sCMF aqueous solutions were placed in a 96-well plate, and 100 μL of 10 wt % (refractive index: 1.35), 25 wt % (refractive index: 1.38), 50 wt % (refractive index: 1.39), and 100 wt % (refractive index: 1.43) AMP aqueous solutions were added. After allowing the obtained samples to stand at room temperature for 2 hours, an absorbance at 600 nm was measured with a plate reader (Synergy HTX). The obtained absorbance was substituted into an equation according to the Lambert-Beer formula to calculate the transmittance.

[2] = system: human skin fibroblasts; test: Cell survival rate after transparentization treatment (trypan blue); format: cell-based
Procedure: The cell survival rates in the transparentization using AMP, ADP, ATP, CMP, TMP, fructose, glucose, trehalose, sucrose, antipyrine, RapiClear 1.52, and poly A were examined. 1.0×10^5 human skin fibroblasts were seeded in a 24-well plate and cultured in DMEM medium. The next day, after washing with PBS, 100 μL of 100 wt % AMP aqueous solution, 100 wt % ADP aqueous solution, 100 wt % ATP aqueous solution, 100 wt % CMP aqueous solution, 100 wt % TMP aqueous solution, 100 wt % fructose aqueous solution, 100 wt % glucose aqueous solution, 100 wt % trehalose aqueous solution, 100 wt % sucrose aqueous solution, 100 wt % antipyrine aqueous solution, RapiClear 1.52 aqueous solution, or 25 wt % poly A aqueous solution was added, and the resultant was incubated at 37° C. for 30 minutes. Distilled water was added for a control. After the incubation, 0.1% trypsin was directly added, and the resultant was incubated for 5 minutes. Cell dissociation was confirmed, 3 mL of DMEM medium was added, and then the resultant was collected into a 15-mL centrifuge tube, and centrifuged (1000 rpm, 5 minutes, 20° C.). The supernatant was aspirated and 100 μL of DMEM medium was added. 10 μL was separated from the resultant and placed in an Eppendorf tube, and 10 μL of trypan blue solution was added thereto. Then, 10 μL was separated and the number of cells was counted with an automated cell counter.

[3] = system: living three-dimensional tissue model; test: Transparentization test (2) on living three-dimensional tissue model, confocal observation; format: cell-based, human; conditions: 60 wt % AMP, 30 minutes
Procedure: (§1) A transparentization was performed on a living three-dimensional tissue model. 60 wt % AMP was used as a transparentizing agent, and RapiClear 1.52 and 61 wt % fructose were used for comparison. The experimental procedure was the same as that of Example 4, except that the paraformaldehyde fixation described in step (6) was not performed.
The upper part of FIG. 5 is images immediately before the treatment (0 minutes), in which the left panel is an image observed in a direction perpendicular to the dish, and the right panel is an image observed in a direction horizontal to the dish. The lower part of FIG. 5 is images immediately after the treatment (30 minutes), in which the left panel is an image observed in a direction perpendicular to the dish, and the right panel is an image observed in a direction horizontal to the dish. By the transparentization treatment with AMP, the central portion of the tissue was seen so that the deep part up to 200 μm could be observed.

[4] = Refractive index of aqueous solutions; format: physicochemical
[5] = system: three-dimensional tissue model (human skin fibroblasts, human umbilical vein endothelial cells); test: Transparentization test (1) on fixed three-dimensional tissue model; format: cell-based; conditions: 100 wt % AMP, 37° C., 30 minutes; paraformaldehyde-fixed tissue
Procedure: (1) A solution containing fibrinogen at a concentration of 2 mg/100 μL, CMF at a concentration of 6 mg/100 μL, and thrombin at a concentration of 1 unit/100 μL using DMEM was prepared.
(2) 1.0×10^5 of human skin fibroblasts, 5.0×10^4 of human umbilical vein endothelial cells, 18 μL of a mixed medium of DMEM and EGM-2, and 2 μL of a thrombin solution were placed in an Eppendorf tube to prepare a cell suspension.
(3) The fibrinogen solution prepared in (1) was combined with a CMF solution, and 40 μL from 200 μL in total of the resulting solution was taken out and added to the cell suspension prepared in (2).
(4) The cell suspension prepared in (3) was placed in a glass bottom dish to prepare a 30-μL drop.
(5) After the drop was incubated for 2 hours, 2 mL of a mixed medium of DMEM and EGM-2 was added.
(6) The drop was cultured at 37° C. for 1 week, washed with PBS, and then fixed with paraformaldehyde for 15 minutes.
(7) The fixed tissue was subjected to CD31 immunostaining and DAPI staining.
(8) A transparentization treatment was performed with 100 wt % AMP at 37° C. for 30 minutes.

[6] = system: living three-dimensional tissue model; test: Cell survival rate in living three-dimensional tissue model (trypan blue); format: cell-based, human
Procedure: as §1
Further after 30, 60, and 90 minutes of the transparentization treatment in the same experimental system as described above, the tissue was disintegrated with proteinase K and collagenase (1:1) and subjected to trypan blue staining to count the number of viable cells. […] The transparentization treatment with AMP had no significant effect on the cell survival rate (a cell survival rate of 92%). […] The cell survival rate was as high as 92% and 90% after the 30-minute and 60-minute transparentization treatments, respectively. It was confirmed that a significant number of cells survived even after the 90-minute transparentization treatment (a cell survival rate of 45%).

[7] = 600 nm, 100 wt % aqueous solution added to sCMF solution
[8] = human skin fibroblasts, 100 wt % aqueous solutions (RapiClear 1.52 aqueous solution), 37° C., 30 minutes, n = 3

refractive index ([4]; 100 wt % aqueous solution)	Molecule	transparentizing ability [1]	Survival rate (%) ([2]; human, 30 min, 100 wt %)	transmittance [1, 7] [%]	Survival rate (%) [2, 8] [%]	also measured
	Nc1ncnc2c1ncn2[C@@H]1O[C@H](COP(=O)(O)OP(=O)(O)O)[C@@H](O)[C@H]1O [ADP, adenosine diphosphate]	high transparentizing ability	87* %			
1.43	Nc1ncnc2c1ncn2[C@@H]1O[C@H](COP(=O)(O)O)[C@@H](O)[C@H]1O [AMP, adenosine monophosphate]	high transparentizing ability	92* %	75.6		observable depth of tissue [3]: up to 200 μm; effect of AMP concentration on transmittance ([1]; 10-100 wt % AMP, 0.1-5 wt % sCMF, 600 nm, 2 hours room temperature): as the AMP concentration was higher, the transmittance was higher; refractive index ([4]; 10 wt % aqueous solution): 1.35; refractive index ([4]; 25 wt % aqueous solution): 1.38; refractive index ([4]; 50 wt % aqueous solution): 1.39; transparentization of tissue (naked eye) [5]: completely transparentized; cell survival rate ([6]; human, 30 min): 92%; cell survival rate ([6]; human, 60 min, 60 wt %): 90%; cell survival rate ([6]; human, 90 min, 60 wt %): 45%
	Nc1ncnc2c1ncn2[C@@H]1O[C@H](COP(=O)(O)OP(=O)(O)OP(=O)(O)O)[C@@H](O)[C@H]1O [ATP, adenosine triphosphate]	high transparentizing ability			26	cell survival rate (in words) ([2]; ATP transparentization treatment): low
	Cc1cc(=O)n(-c2ccccc2)n1C [Antipyrine, antipyrine, reference compound]				33	
1.42	Nc1ccn([C@@H]2O[C@H](COP(=O)(O)O)[C@@H](O)[C@H]2O)c(=O)n1 [CMP, cytidine monophosphate]	high transparentizing ability	53%	45.2		
	O=C(CO)[C@@H](O)[C@H](O)[C@H](O)CO [Fructose, fructose, reference compound]				6	cell survival rate ([6]; 30 minutes of treatment, 60 wt % AMP, RapiClear 1.52, 61 wt % fructose): 22%
	OC[C@H]1O[C@@](CO)(O[C@H]2O[C@H](CO)[C@@H](O)[C@H](O)[C@H]2O)[C@@H](O)[C@@H]1O [Sucrose, sucrose, reference compound]		14%			
1.41	Cc1cn([C@@H]2O[C@H](COP(=O)(O)O)[C@@H](O)[C@H]2O)c(=O)[nH]c1=O [TMP, 5-methyluridine monophosphate]	high transparentizing ability	42%	31.6		
	OC[C@H]1O[C@H](O[C@H]2O[C@H](CO)[C@@H](O)[C@H](O)[C@H]2O)[C@H](O)[C@@H](O)[C@@H]1O [Trehalose, trehalose, reference compound]		25%			
	poly A	high transparentizing ability				transmittance ([1]; 600 nm, 25 wt % aqueous solution added to sCMF solution): 69.0%; refractive index ([4]; 25 wt % aqueous solution): 1.37; effect on the survival rate (in words) [2]: little effect on the survival rate
